In patent US4275068A, “Lipid lowering alkylene glycols and ester derivatives thereof” (Siegfried AG, priority 1977, dated 1981):
Where a name gives a salt, the structure may show the parent alone.

Legend:
Toxicity on mice (LD50) = conditions: mouse
Description: Toxicity values and activities of the above compounds (1) were investigated by animal tests in accordance with conventional methods as described, for example, in the above mentioned publications, and compared with the corresponding data of clofibrate, the well known cholesterol-lowering agent: […]

[1] = test system: cholesterol content of the blood; experiment: Cholesterol-lowering (dosis required for a 25% reduction of the cholesterol content of the blood); type: in vivo; conditions: dosis for 25% reduction of cholesterol content of the blood; mg/kg body weight; read-out: Cholesterol ED 25
Description: The ED25 value, that is, the dosis in mg/kg body weight required for a 25% reduction of the cholesterol content of the blood, is 151 for clofibrate but better, i.e. lower, with all compounds (1) tested so far.

[2] = test system: triglyceride content of the blood; experiment: Triglyceride-lowering (dosis required for a 25% reduction of the triglyceride content of the blood); type: in vivo; conditions: dosis for 25% reduction of triglyceride content of the blood, mg/kg body weight; for ED25: read-out: Triglyceride ED 25
Description: The ED25 value, in this instance the dosis in mg/kg body weight required for a 25% reduction of the triglyceride content of the blood, is better, i.e. lower, with all compounds (1) tested so far than the corresponding activity value of 22 of clofibrate.

Compound	LD50 (Toxicity on mice (LD50); in vivo)	ED25 [1]	Triglyceride ED 25 [2]	Triglyceride ED 25 ([2]; listed as clofibrate)	LD50 (Toxicity on mice (LD50))	ED25 [2]
CCOC(=O)C(C)(C)Oc1ccc(Cl)cc1 [Clofibrate, reference compound]	2180 mg/kg	151 mg/kg	222 mg/kg	22 mg/kg		
OCCOc1ccc(Cc2ccc(Cl)cc2)cc1 [Example 1, 2-[4-(4'-chlorobenzyl)-phenoxy]-ethanol]		80 mg/kg			3000 mg/kg	< 50 mg/kg
CCC(C)(CO)Oc1ccc(Cc2ccc(Cl)cc2)cc1 (stereo not drawn) [Example 2, 2-methyl-2-[4-(4'-chlorobenzyl)-phenoxy]-butanol]		80 mg/kg			2960 mg/kg	14 mg/kg
OCC(Oc1ccc(Cc2ccc(Cl)cc2)cc1)c1ccccc1 (stereo not drawn) [Example 3, 2-phenyl-2-[4-(4'-chlorobenzyl)-phenoxy]-ethanol]		> 100 mg/kg			> 3000 mg/kg	
O=C(OCCOc1ccc(Cc2ccc(Cl)cc2)cc1)c1cccnc1 [Example 4, Ester of nicotinic acid and 2-[4-(4'-chlorobenzyl)-phenoxy]-ethanol]		41 mg/kg			> 3000 mg/kg	70 mg/kg
CCC(C)(COC(=O)c1cccnc1)Oc1ccc(Cc2ccc(Cl)cc2)cc1 (stereo not drawn) [Example 5, Hydrochloride of nicotinic acid ester of 2-methyl-2-[4-(4'-chlorobenzyl)-phenoxy]-butanol]		30 mg/kg			> 3000 mg/kg	40 mg/kg
CC(=O)Oc1ccccc1C(=O)OCCOc1ccc(Cc2ccc(Cl)cc2)cc1 [Example 6, Acetylsalicylic acid ester of 2-[4-(4'-chlorobenzyl)-phenoxy]-ethanol]		70 mg/kg			> 3000 mg/kg	> 100 mg/kg
